Values quoted from earlier work in US20100261663A1, “Compositions Containing Harpagoside and Paeoniflorin and Methods for Treatment of Conditions Associated with Pain, Inflammation, Arthritis and Symptoms Thereof” (Restorative Remedies, priority 2009, published 2010).
Like-named read-outs stand apart in the source and are kept apart here.

How the values were obtained:
[1] = system: patients with hip and knee osteoarthritis; conditions: after four months; extract 2,610 mg per day, diacerhein 100 mg per day; no significant differences
[2] = system: patients suffering from osteoarthritis of the knee and hip; conditions: 4 months
[3] = system: human intestinal microflora
[4] = for Cmax: human whole blood
Bacillus subtilis = Bacillus subtilis rec assay
[5] = not given; remark: listed apart in the source
Salmonella = Salmonella microsome reversion assay
[6] = rats; for Cumulative biliary excretion: within 24 h
[7] = mice plasma, oral peony root extract
[8] = system: intestinal bacteria in rat feces
[9] = everted sac, at 60 min
[10] = single oral 43.8 mg harpagoside/600 mg extract (study 1)
[11] = single oral 100 mg harpagoside/400 mg extract (study 1)
[12] = single oral 108 mg harpagoside/1200 mg extract (study 3)
[13] = single oral 150 mg harpagoside/600 mg extract (study 2)
[14] = single oral 162 mg harpagoside/1800 mg extract (study 3)
[15] = single oral 200 mg harpagoside/800 mg extract (study 1)
[16] = 5 mg kg^−1 intravenous, within 72 h

**Q.** With `CC(=O)Oc1cccc2c1C(=O)c1c(OC(C)=O)cc(C(=O)O)cc1C2=O` [diacerhein] as the molecule, how does the osteoarthritis symptoms [1] read?
**A.** considerable improvements

**Q.** And the “diarrhea, patients” value [2]?
**A.** 26.7%

**Q.** And the “Spontaneous pain (10 cm visual analogue scale)” value ([2]; Harpadol 6 capsules/day, diacerhein 100 mg/day, no difference between treatments)?
**A.** significant improvement

**Q.** What about the Lequesne functional index ([2]; no statistical difference between treatments) of the same molecule?
**A.** progressive and significant reduction

**Q.** What does the source list for `C[C@]1(OC(=O)/C=C/c2ccccc2)C[C@@H](O)[C@]2(O)C=CO[C@@H](O[C@@H]3O[C@H](CO)[C@@H](O)[C@H](O)[C@H]3O)[C@@H]21` [harpagoside]?
**A.** biological activity at acidic pH of gastric secretions: significantly reduced; transformation product [3]: transformed into the pyridine monoterpene alkaloid aucubinine B; harpagoside in whole blood ([4]; after 600 mg Harpagophytum extract in study 3 (54 mg harpagoside), oral): no harpagoside was detected; Cmax [4, 10]: 15.4 ng/mL; Cmax [4, 11]: 16.4 ng/mL; Cmax [4, 12]: 8.2 ng/mL; Cmax [4, 13]: 32.2 ng/mL; Cmax [4, 14]: 27.8 ng/mL; Cmax [4, 15]: 50.1 ng/mL; clearance ([4]; overall, oral): about 15 L/min; tmax [4, 10]: 2 h; AUC(0-t) [4, 11]: 65.9 ng·h/mL; AUC(0-∞) [4, 11]: 82 ng·h/mL; CL [4, 11]: 20.3 L/min; Terminal t1/2 [4, 11]: 3.7 h; tmax [4, 11]: 2.5 h; AUC(0-t) [4, 12]: 17.2 ng·h/mL; tmax [4, 12]: 1.3 h; AUC(0-t) [4, 13]: 157.5 ng·h/mL; AUC(0-∞) [4, 13]: 226 ng·h/mL; CL [4, 13]: 12.2 L/min; Terminal t1/2 [4, 13]: 5.6 h; tmax [4, 13]: 1.3 h; AUC(0-t) [4, 14]: 160.5 ng·h/mL; AUC(0-∞) [4, 14]: 187.9 ng·h/mL; CL [4, 14]: 14.4 L/min; Terminal t1/2 [4, 14]: 4.4 h; tmax [4, 14]: 1.8 h; AUC(0-t) [4, 15]: 225.7 ng·h/mL; AUC(0-∞) [4, 15]: 355.8 ng·h/mL; CL [4, 15]: 9.4 L/min; Terminal t1/2 [4, 15]: 6.4 h; tmax [4, 15]: 2.5 h; LD50 (mice): greater than 13.5 grams per kg of body weight

**Q.** With `C[C@@]12C[C@@]3(O)O[C@@H](O1)[C@]1(COC(=O)c4ccccc4)[C@H]3C[C@@]12O[C@@H]1O[C@H](CO)[C@@H](O)[C@H](O)[C@H]1O` [paeoniflorin, 5β-[(Benzoyloxy)methyl]tetrahydro-5-hydroxy-2-Methyl-2,5-methano-1H-3,4-dioxacyclobuta[cd]pentalen-1α(2H)-yl-β-D-glucopyranoside] as the molecule, how does the mutagenicity (Bacillus subtilis) read?
**A.** nonmutagenic

**Q.** What about the LD50 (Rodent-mouse; Intraperitoneal) of the same molecule?
**A.** 3530 mg/kg

**Q.** And the “Toxic Effects” value (Rodent-mouse; Intraperitoneal)?
**A.** Behavioral-somnolence (general depressed activity)

**Q.** What about the LD50 (Rodent-mouse; Intravenous) of the same molecule?
**A.** 9530 mg/kg

**Q.** What about the “Toxic Effects” value (Rodent-mouse; Intravenous) of the same molecule?
**A.** Behavioral-sleep. Behavioral-somnolence (general depressed activity)

**Q.** What about the “metabolism in the gut wall” value ([5]; AUC after intraperitoneal 0.5 mg kg^−1 versus intraportal or intravenous) of the same molecule?
**A.** not metabolized in the gut wall

**Q.** And the hepatic extraction ratio ([5]; intraportal versus intravenous, 0.5 and 5 mg kg^−1)?
**A.** negligible

**Q.** And the “mean pulmonary extraction ratio” value ([5]; venous versus arterial AUC after intravenous 0.5 mg kg^−1)?
**A.** 0.06

**Q.** What about the mutagenicity (Salmonella) of the same molecule?
**A.** nonmutagenic

**Q.** What about the Cumulative biliary excretion ([6]; 0.5 mg kg^−1 intravenous) of the same molecule?
**A.** 6.9 % of the dose

**Q.** And the Cumulative biliary excretion ([6]; 0.5 mg kg^−1 oral)?
**A.** 1.3 % of the dose

**Q.** And the cumulative fecal excretion [6, 16]?
**A.** 0.22 % of the dose

**Q.** What about the cumulative urinary excretion [6, 16] of the same molecule?
**A.** 50.5 % of the dose

**Q.** And the cumulative fecal excretion ([6]; 5 mg kg^−1 oral, within 48 h)?
**A.** 0.08 % of the dose

**Q.** What about the cumulative urinary excretion ([6]; 5 mg kg^−1 oral, within 48 h) of the same molecule?
**A.** 1.0 % of the dose

**Q.** And the CLtot ([6]; intravenous 0.5 mg kg^−1)?
**A.** 26.1 mL/min/kg

**Q.** What about the Vdss ([6]; intravenous 0.5 mg kg^−1) of the same molecule?
**A.** 0.332 L/kg

**Q.** And the mean terminal half-life ([6]; intravenous 0.5 mg kg^−1)?
**A.** 0.183 h

**Q.** And the CLtot ([6]; intravenous 2.0 mg kg^−1)?
**A.** 31.2 mL/min/kg

**Q.** What about the Vdss ([6]; intravenous 2.0 mg kg^−1) of the same molecule?
**A.** 0.384 L/kg

**Q.** What about the mean terminal half-life ([6]; intravenous 2.0 mg kg^−1) of the same molecule?
**A.** 0.165 h

**Q.** And the CLtot ([6]; intravenous 5.0 mg kg^−1)?
**A.** 30.3 mL/min/kg

**Q.** What about the Vdss ([6]; intravenous 5.0 mg kg^−1) of the same molecule?
**A.** 0.423 L/kg

**Q.** What about the mean terminal half-life ([6]; intravenous 5.0 mg kg^−1) of the same molecule?
**A.** 0.21 h

**Q.** And the “mean terminal half-life (t(1/2))” value [7]?
**A.** 1.569 h

**Q.** And the metabolites formed [8]?
**A.** paeonimetabolin-1 (PM-1) and thio-paeonimetabolin-1 (PT-PM-1)

**Q.** Which intestinal permeability [9] does the source give for `CCC1(c2ccccc2)C(=O)NC(=O)NC1=O` [phenobarbital] here?
**A.** 63.1%
